Legend:
Bcl-2-like protein 1 = Bcl-2-like protein 1 (Homo sapiens, UniProt Q07817); assay: Binding affinity to Bc1-xL (unknown origin) by fluorescence polarization competition assay
[1] = target: Induced myeloid leukemia cell differentiation protein Mcl-1 (Homo sapiens, UniProt Q07820); assay: Binding affinity to Mc1-1 (unknown origin) by fluorescence polarization competition assay
Induced myeloid leukemia cell differentiation protein Mcl-1, sequence (Q07820 whole entry): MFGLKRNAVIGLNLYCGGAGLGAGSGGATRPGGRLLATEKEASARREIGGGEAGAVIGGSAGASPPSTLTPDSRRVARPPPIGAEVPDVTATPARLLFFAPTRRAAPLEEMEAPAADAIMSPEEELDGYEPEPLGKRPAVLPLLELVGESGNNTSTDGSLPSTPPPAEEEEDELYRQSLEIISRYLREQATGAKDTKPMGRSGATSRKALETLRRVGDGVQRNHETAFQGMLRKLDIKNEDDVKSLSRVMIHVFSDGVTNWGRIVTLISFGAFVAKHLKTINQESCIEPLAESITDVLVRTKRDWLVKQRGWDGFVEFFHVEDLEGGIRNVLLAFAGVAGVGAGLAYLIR

Bcl-2-like protein 1, sequence (Q07817 whole entry): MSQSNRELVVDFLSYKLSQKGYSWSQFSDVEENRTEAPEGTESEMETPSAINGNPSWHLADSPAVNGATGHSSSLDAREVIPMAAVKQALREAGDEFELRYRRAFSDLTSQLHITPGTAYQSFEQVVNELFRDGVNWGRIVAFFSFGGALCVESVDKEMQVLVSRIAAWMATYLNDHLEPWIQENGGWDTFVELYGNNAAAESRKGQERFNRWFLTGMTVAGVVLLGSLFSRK

| Structure (SMILES) | Ki (Bcl-2-like protein 1; read-out: Ki) | Ki [1] | Ki (Bcl-2-like protein 1) |
| --- | --- | --- | --- |
| Cc1cccc(-c2cn(Cc3cccc4ccccc34)c3cccc(-c4ccccc4C(=O)O)c23)c1 | > 200000 nM | 960 nM | – |
| CCc1ccccc1-c1cn(CCOc2cccc3ccccc23)c2cccc(-c3ccccc3C(=O)O)c12 | > 200000 nM | 270 nM | – |
| Cc1cccc(-c2cn(CCOc3cccc4ccccc34)c3cccc(-c4ccccc4C(=O)O)c23)c1C | > 200000 nM | 710 nM | – |
| O=C(O)c1ccccc1-c1cccc2c1c(-c1cccc(C(F)(F)F)c1)cn2Cc1cccc2ccccc12 | > 200000 nM | 190 nM | – |
| O=C(O)c1ccccc1-c1cccc2c1c(-c1cccc(Cl)c1)cn2Cc1cccc2ccccc12 | > 200000 nM | 450 nM | – |
| Cc1ccccc1-c1cn(Cc2cccc3ccccc23)c2cccc(-c3ccccc3C(=O)O)c12 | > 200000 nM | 70 nM | – |
| Cc1cccc(-c2cn(CCOc3cccc4ccccc34)c3cccc(-c4ccccc4C(=O)O)c23)c1 | > 200000 nM | 920 nM | – |
| Cc1ccc(-c2cn(CCOc3cccc4ccccc34)c3cccc(-c4ccccc4C(=O)O)c23)cc1 | > 200000 nM | 250 nM | – |
| CC(C)c1ccccc1-c1cn(CCOc2cccc3ccccc23)c2cccc(-c3ccccc3C(=O)O)c12 | > 200000 nM | 170 nM | – |
| COc1cccc(-c2cn(Cc3cccc4ccccc34)c3cccc(-c4ccccc4C(=O)O)c23)c1 | > 200000 nM | 290 nM | – |
| O=C(O)c1ccccc1-c1cccc2c1c(-c1cccc(C(F)(F)F)c1)cn2CCCOc1cccc2ccccc12 | 3100 nM | 280 nM | – |
| CC1(C)CCC(CN2CCN(c3ccc(C(=O)NS(=O)(=O)c4ccc(NCC5CCOCC5)c([N+](=O)[O-])c4)c(Oc4cnc5[nH]ccc5c4)c3)CC2)=C(c2ccc(Cl)cc2)C1 [VENETOCLAX] | – | > 200000 nM | – |
| Cc1cccc(-c2cn(CCCOc3cccc4ccccc34)c3cccc(-c4ccccc4C(=O)O)c23)c1 | > 200000 nM | 1330 nM | – |
| Cc1cc2c(C(C)C)c(O)c(O)c(C=O)c2c(O)c1-c1c(C)cc2c(C(C)C)c(O)c(O)c(C=O)c2c1O [GOSSYPOL] | 610 nM | – | – |
| O=C(O)c1ccccc1-c1cccc2c1c(-c1ccccc1)cn2Cc1cccc2ccccc12 | > 200000 nM | 120 nM | – |
| COc1ccccc1-c1cn(CCOc2cccc3ccccc23)c2cccc(-c3ccccc3C(=O)O)c12 | > 200000 nM | 170 nM | – |
| Cc1ccc(-c2cn(Cc3cccc4ccccc34)c3cccc(-c4ccccc4C(=O)O)c23)cc1 | > 200000 nM | 230 nM | – |
| O=C(O)c1ccccc1-c1cccc2c1c(-c1cccc(C(F)(F)F)c1)cn2CCOc1cccc2ccccc12 | 6100 nM | 30 nM | – |
| O=C(O)c1ccc(Cl)cc1-c1cccc2c1ccn2CCCOc1cccc2ccccc12 | 2300 nM | 220 nM | – |
| O=C(O)c1ccccc1-c1cccc2c1ccn2CCCOc1cccc2ccccc12 | – | 1190 nM | Not Active |
| COc1ccccc1-c1cn(Cc2cccc3ccccc23)c2cccc(-c3ccccc3C(=O)O)c12 | > 200000 nM | 270 nM | – |
| Cc1ccccc1-c1cn(CCOc2cccc3ccccc23)c2cccc(-c3ccccc3C(=O)O)c12 | > 200000 nM | 170 nM | – |
| O=C(O)c1ccccc1-c1cccc2c1c(-c1cccc(Cl)c1)cn2CCOc1cccc2ccccc12 | 2300 nM | 360 nM | – |
